We go through one compound from patent US6753330B2, “Solid dispersion composition” (Kowa Co., Ltd., priority 2002, dated 2004).

Series [1] can be described thus: Solubility of compound 1 in water. In kind it is physicochemical.
For series [2], the system named is production of interleukin 1β. The note with it: disclosed in JP Laid-Open No. 2000-198776; cited from earlier work.

For the compound `CSc1ccc(-c2nn(Cc3ccccc3)c(=O)cc2-c2ccc(Cl)cc2)cc1` [compound 1, 2-benzyl-5-(4-chlorophenyl)-6-[4-(methylthio)phenyl]-2H-pyridazin-3-one], the “solubility in water (in words)” value in series [1] is given as “exceptionally poor solubility in water”. The “effect for suppressing production of interleukin 1β (in words)” value in series [2] was “excellent effect”.
